Experimental data: article PMC11855827, “High-Throughput Screening of Five Compound Libraries for Anthelmintic Activity and Toxicity Leads to the Discovery of Two Flavonoid Compounds” (International Journal of Molecular Sciences, 2025)
Like-named read-outs stand apart in the source and are kept apart here.

System: C. elegans
Assay: microbe, parasite or virus in culture
Details: Caenorhabditis elegans
[1] = 0 h, read-out: Percentage of motility inhibition 0 h, Table S2, C. elegans SS assay, 110 μM, 0 h, averages of 4 data points
[2] = 24 h, read-out: Percentage of motility inhibition 24 h, Table S2, C. elegans SS assay, 110 μM, 24 h, averages of 4 data points
[3] = 0 h, read-out: Percentage of motility inhibition 0 h
[4] = 24 h, read-out: Percentage of motility inhibition 24 h

| SMILES | inhibition at 110 µM [1] [%] | inhibition at 110 µM [2] [%] | inhibition at 110 µM [3] [%] | inhibition at 110 µM [4] [%] |
| --- | --- | --- | --- | --- |
| C[C@@H]1CC[C@]2(C(=O)O)CC[C@]3(C)C(=CC[C@@H]4[C@@]5(C)C[C@@H](O)[C@@H](O)C(C)(C)[C@@H]5CC[C@]43C)[C@@H]2[C@]1(C)O [Euscaphic acid] | 18 | 27 | – | – |
| Cc1cc(CCCOc2c(C)cc(-c3noc(C(F)(F)F)n3)cc2C)on1 [Pleconaril] | 4 | 14 | – | – |
| CC(C)=CCC[C@](C)(O)[C@H]1CC[C@]2(C)[C@@H]1[C@H](O)C[C@@H]1[C@@]3(C)CC[C@H](O)C(C)(C)[C@@H]3[C@@H](O[C@@H]3O[C@H](CO)[C@@H](O)[C@H](O)[C@H]3O)C[C@]12C [Ginsenoside Rh1] | 0 | 9 | – | – |
| CCCCCCCCCC(=O)O[C@H]1CC[C@H]2[C@@H]3CCC4=CC(=O)CC[C@@H]4[C@H]3CC[C@]12C [Nandrolone decanoate] | 29 | 31 | – | – |
| CC(CC(=O)C[C@@H](C)[C@H]1CC(=O)[C@@]2(C)C3=C(C(=O)C[C@]12C)[C@@]1(C)CCC(=O)C(C)(C)[C@@H]1C[C@@H]3O)C(=O)O (some centres unmarked) [Ganoderic acid D] | 0 | 21 | – | – |
| C/C=C1\C(=O)C[C@H]2[C@@H]3CCC4=CC(=O)CC[C@]4(C)[C@H]3CC[C@]12C [Guggulsterone] | – | – | 0 | 17 |
| C=C1CC[C@@H]2[C@](C)(CO)CCC[C@@]2(C)[C@@H]1CCC1=CCOC1=O [Andrograpanin] | 3 | 20 | – | – |
| Oc1c(Br)cc(Br)c2cccnc12 [Broxyquinoline] | 0 | 8 | – | – |
| C[C@H]1CC[C@]2(NC1)O[C@H]1C[C@H]3[C@@H]4CC[C@H]5C[C@@H](O)CC[C@]5(C)[C@H]4CC[C@]3(C)[C@H]1[C@@H]2C [Tomatidine] | 6 | 0 | – | – |
| Oc1c(Cl)cc(Cl)c2cccnc12 [Chloroxine] | 43 | 34 | – | – |
| CSCC[C@H](N)C(=O)O [L-Methionine] | 0 | 0 | – | – |
| C=C(C)[C@H](CC=C(C)C)Cc1c(O)cc(OC)c2c1O[C@H](c1ccc(O)cc1O)CC2=O [Kurarinone] | 0 | 0 | – | – |
| O=C1C=CC[C@@H]2[C@H]3CCC[N+]4([O-])CCC[C@@H](CN12)[C@@H]34 (some centres unmarked) [Oxysophocarpine] | 34 | 0 | – | – |
| COc1cc2c3c(cc4ccccc4c3c1OC)N(C)CC2 [Dehydronuciferine] | 6 | 6 | – | – |
| COc1ccc(Cc2cnc(N)nc2N)cc1OC [Diaveridine] | 17 | 32 | – | – |
| CC(=O)N[C@H]1[C@H]([C@H](O)[C@H](O)CO)OC(C(=O)O)=C[C@@H]1N=C(N)N [Zanamivir] | 22 | 6 | – | – |
| C=CC(C)(O)CCC=C(C)C (centres unmarked) [Linalool] | – | – | 14 | 20 |
| C[C@H](Cn1cnc2c(N)ncnc21)OCP(=O)(O)O [Tenofovir] | 22 | 16 | – | – |
| O=C1C[C@@H](c2ccc(O)cc2)Oc2cc(O[C@@H]3O[C@H](CO)[C@@H](O)[C@H](O)[C@H]3O)cc(O)c21 [Prunin] | 13 | 2 | – | – |
| CC[C@@]1(O)C(=O)OCc2c1cc1n(c2=O)Cc2cc3cc(O)ccc3nc2-1 [(S)‐10‐Hydroxycamptothecin] | 0 | 0 | – | – |
| N[C@@H](Cc1c[nH]cn1)C(=O)O [L-Histidine] | 23 | 22 | – | – |
| O=[N+]([O-])c1cncn1CCN1CCOCC1 [Nimorazole] | 0 | 0 | – | – |
| CC1=C2C[C@H]3[C@@H](CC=C4C[C@@H](O)CC[C@@]43C)[C@@H]2CC[C@]12O[C@@H]1C[C@H](C)CN[C@H]1[C@H]2C [Cyclopamine] | – | – | 0 | 14 |
| CC(=O)OC[C@]12[C@H](OC(C)=O)[C@H](OC(C)=O)[C@@H]3[C@@H](OC(C)=O)[C@@]14O[C@@]3(C)COC(=O)c1cccnc1CCC(C)C(=O)O[C@@H]([C@H](OC(=O)c1ccco1)[C@@H]2OC(C)=O)[C@]4(C)O (some centres unmarked) [Wilforgine] | 12 | 5 | – | – |
| Cc1ccnc(NS(=O)(=O)c2ccc(N)cc2)n1 [Sulfamerazine] | 12 | 7 | – | – |
| CC(C)(C)NC(=O)[C@@H]1C[C@@H]2CCCC[C@@H]2CN1C[C@@H](O)[C@H](Cc1ccccc1)NC(=O)[C@H](CC(N)=O)NC(=O)c1ccc2ccccc2n1 [Saquinavir] | 37 | 0 | – | – |
| N#C[C@H](O[C@@H]1O[C@H](CO[C@@H]2O[C@H](CO)[C@@H](O)[C@H](O)[C@H]2O)[C@@H](O)[C@H](O)[C@H]1O)c1ccccc1 [Amygdalin] | 13 | 0 | – | – |
| C=CCOC(Cn1ccnc1)c1ccc(Cl)cc1Cl (centres unmarked) [Imazalil] | 35 | 36 | – | – |
